The values below come from patent US9085559B2, “Triazine-aryl-bis-indoles and process for preparation thereof” (COUNCIL OF SCIENTIFIC & INDUSTRIAL RESEARCH, priority 2010, dated 2015).

One series has as its system PDE-4. As to the kind of experiment: Phosphodiesterase 4 assay ([3H]cAMP SPA), enzyme preparation from rat heart. In kind it is biochemical. The note with it: PDE-4 activity, dose 10 μg/ml. How it is done:
FIG. 2. […] To examine whether IICT-TA67 inhibits PDE-4 activity in vitro, enzyme preparations were incubated in the absence or presence of different concentrations (1-20 μg/ml) of IICT-TA67 and breakdown of cAMP was monitored by β counter.
Table 1. Measurement of phosphodiesterase (PDE)-4 activity by compounds.
Heart was excised from anesthetized rat and transfer into normal saline solution. […] The homogenate was centrifuged at 500×g for 5 minute at 4° C. Then sup was taken for further centrifuged at 40,000×g for 30 minute (ultra centrifugation). After centrifugation supernatant was collected for phosphodiesterase assay. Protein concentration was estimated and for each assay, 2.5 μg protein (PDE enzyme preparation) was used.
Phosphodiesterase 4 assay: Phosphodiesterase 4 assay was conducted with [^3H] cAMP SPA enzyme assay (GE Amersham, UK) using 2.5 μg enzyme preparation for each well. Into each well 60 μl water, 10 μl assay buffer supplied with the kit, 10 μl compound (inhibitor), 10 μl PDE enzyme or homogenizing buffer (blank) and 10 μl radiolabel led cAMP ([^3H]cAMP, GE Amersham, UK) were added. To check activity of the enzyme without inhibitor 10 μl DMSO was added in place of inhibitor to a separate well. The reaction mixtures were incubated for 30 mi at 30° C. The reaction was stopped by adding 50 μl SPA bead supplied with the kit. It was then mixed well and allowed to stand at room temperature for 20 min. Breakdown of cAMP in each tube was monitored by β counter. The reading in each tube was obtained in counts per minute (CPM). The reading of the blank tube (without enzyme) was subtracted from each tube to normalize the counts. The enzyme activity was calculated by considering the CPM reading without any inhibitor (compound) as 100.

Series [1] in a line: Pharmacokinetic study, oral and i.v. route. In kind it is in vivo, swiss mice. The conditions noted are these: mouse, in vivo. How it is done:
FIG. 6. Pharmacokinetics of IICT-TA67 through oral route. FIG. 7. Pharmacokinetics of IICT-TA67 through intravenous (i.v) route in mice. IICT-TA67 (20 mg/kg) was administered orally (or 10 mg/kg by i.v. route) as a fine suspension in 1% Gum acacia. Blood samples were drawn from retro-orbital plexus at designated times in pre-labeled heparinised tubes and centrifuged (3500 rpm×10 minutes) to obtain the plasma. Blood samples were collected at 0, 5, 15 and 30 min, and 1, 2, 4, 6, 8, 16 and 24 hrs post-administration after oral/iv route. HPLC determinations were done on Shimadzu chromatograph (Model: LC-10 Atvp equipped with a diode array detector). The Molecule ICT-TA67 was determined at 276 nm using RP-18 column (5 μm×25 cm). Mobile phase consisted of acetonitrile: water (55:45) with a flow rate of 1.0 ml/min.
Animals. Healthy swiss mice of both the sexes (25-30) were used. The animals were kept (3/cage) under controlled conditions (temp 26±2° C.; relative humidity 50±5%; 12 h light/dark cycle) and maintained on pelleted rodent diet (Ashirwad Industries Ltd. Chandigarh, India). Water was provided ad libitum. Institutional Animal Ethics committee approved the animal experiments. Animals were fasted for 16 hours before use.
Step 1: Dosing: IICT-TA67 (20 mg/kg) was administered orally (or 10 mg/kg by i.v.route) as a fine suspension in 1% Gum acacia. Blood samples were drawn from retro-orbital plexus at designated times in pre-labeled heparinised tubes and centrifuged (3500 rpm×10 minutes) to obtain the plasma. Blood samples were collected at 0, 5, 15 and 30 min, and 1, 2, 4, 6, 8, 16 and 24 hrs post-administration after oral/iv route.
Step 2: HPLC determinations: Aliquots of plasma were mixed with acetonitrile (1:2), vortexed for two minutes (2500 rpm) and centrifuge at 5000 rpm for 10 min. The organic layer was collected and evaporated to dryness using solvent evaporator (Model: SPD 111V, Thermo Electron Corporation, MA). The dried samples were reconstituted in mobile phase for HPLC analysis. In a similar manner samples were also prepared from aliquots of plasma collected from untreated animals which were spiked with molecule 67 (0.25 μg-10 μg/ml). […] Reproducibility of the method was defined by both intra-, and inter-day variance. The retention time of Mol. 67 was 10.688 min, at which no other interfering peak was observed. The lower limit of detection (LOD) was 11 ng/ml; limit of quantitation (LOQ) was 32 ng/ml; recovery was 90±2%.
HPLC determinations were done on Shimadzu chromatograph (Model: LC-10 Atvp equipped with a diode array detector). Molecule 67 was determined at 276 nm using RP-18 column (5 μm×25 cm). Mobile phase consisted of acetonitrile: water (55:45) with a flow rate of 1.0 ml/min.
Step 3: Calculating Bioavailability indices: A concentration-time curve for Molecule 67 was established and pharmacokinetic parameters AUC, Cmax, and tmax were determined by a non-compartmental analysis using TOPFIT software package. Absolute bioavailability was determined using the following formula: AUCoral×doseiv/AUCiv×Doseoral.

In another series the test system is BALB/c 3T3 cell line. Kind of series: Balb/c 3T3 Neutral Red Uptake (NRU) cytotoxicity assay. In kind it is cell-based. The conditions noted are these: NRU cytotoxicity test (FIG. 8). From the text:
FIG. 8. IICT-TA67 is not toxic. To evaluate the cytotoxicity of test chemical (IICT-TA67) BALB/c 3T3 cell line was used for Neutral Red Uptake (NRU) cytotoxicity test. The test result has been used to determine IC50 for IICT-TA67 and acute oral toxicity (LD50) in rodent was predicted.
Basal cytotoxicity of IICT-TA67 has been performed to measure IC50 and thereafter predict in vivo acute oral LD50 values in rodent by using Halle's Registry of cytotoxicity (RC) prediction model: log (LD50)=0.435×log (IC50)+0.625 (Halle, 1998; Spielmann et al., 1999). Balb/c 3T3 Neutral Red Dye Uptake (NRU) cytotoxicity assay procedure was adopted (Liebsch & Spielmann 1995). In brief 3T3 cell were grown in 96 well microtitre plates and exposed to IICT-TA-67. After 48-hour incubation, the test material was removed and Neutral red (NR) solution was applied to the cells. The cells were incubated again, the excess NR solution was removed and finally NR was eluted from the cells. The NRU was determined by using a microtitre plate reader to measure the optical density at 540 nm of the eluted dye in 96 well plate. A calculation of cell viability expressed as NRU was made for each concentration of the test chemical by using the mean NRU of 6 replicate values per test concentration. The cell viability value was compared with the mean NRU of all vehicle control values and relative cell viability was then expressed as percent of untreated vehicle control. […] Although the percentage of viability is slightly more than 95% at 50 μg/ml of IICT-67, 30 μg/ml (% viability of cells is 98%)

Each structure is given as a SMILES string.

Regarding `COc1cc(C=O)ccc1Oc1nc(NC2CC2)nc(NC2CC2)n1` [Compound 12, 4-[4,6-Bis-cyclopropylamino-1,3,5-triazin-2-yl-oxy]-3-methoxy benzaldehyde], the Inhibition % in the series on PDE-4 turned out to be 29%. The compound `Clc1nc(NC2CC2)nc(NC2CC2)n1` [Compound 10, 6-Chloro-N^2,N^4-dicyclopropyl-1,3,5-triazine-2,4-diamine] returned an Inhibition % in the series with PDE-4 of 44%.

For the compound `COc1cc(C(c2cc3ccccc3[nH]2)c2cc3ccccc3[nH]2)ccc1Oc1nc(NC2CC2)nc(NC2CC2)n1` [Compound 1, 2,2′-[2,2′-4-(4,6-bis-cyclopropylamino)-1,3,5-triazin-2-yl-oxy-3-methoxyphenyl]-methylene-bis-1H-indole], the Inhibition % in the series with PDE-4 amounted to 16%. In turn, `COc1ccc(C(c2cc3ccccc3[nH]2)c2cc3ccccc3[nH]2)cc1Oc1nc(NC2CC2)nc(NC2CC2)n1` [Compound 5, 2,2′-[2,2′-3-(4,6-bis-cyclopropylamino)-1,3,5-triazin-2-yl-oxy-4-methoxyphenyl]-methylene-bis-1H-indole] yielded an Inhibition % in the series with PDE-4 of 34%.

For `COc1cc(C(c2[nH]c3ccccc3c2CC(=O)O)c2[nH]c3ccccc3c2CC(=O)O)ccc1Oc1nc(NC2CC2)nc(NC2CC2)n1` [Compound 3, 2,2′-[2,2′-4-(4,6-bis-cyclopropylamino)-1,3,5-triazin-2-yl-oxy-3-methoxyphenyl]-methylene-bis-(1H-indole-3,3-diyl)-diacetic acid], the Inhibition % in the series with PDE-4 was 42%.

Compound `Clc1nc(Nc2ccccc2)nc(Nc2ccccc2)n1` [Compound 11, 6-Chloro-N^2,N^4-diphenyl-1,3,5-triazine-2,4-diamine] registered an Inhibition % with PDE-4 of 53%. As for `COc1ccc(C(c2[nH]c3ccccc3c2CC(=O)O)c2[nH]c3ccccc3c2CC(=O)O)cc1Oc1nc(Nc2ccccc2)nc(Nc2ccccc2)n1` [Compound 8, 2,2′-[2,2′-3-(4,6-bis-anilino)-1,3,5-triazin-2-yl-oxy-4-methoxyphenyl]-methylene-bis-(1H-indole-3,3-diyl)-diacetic acid], the “bioavailability and pharmacokinetics” value in series [1] is recorded as “potentially bioavailable with good pharmacokinetics”. In the series on PDE-4, this compound gave an Inhibition % of 73%. Besides, the “toxicity” value in the series on BALB/c 3T3 cell line was “potentially non toxic”. As for `COc1cc(C=O)ccc1Oc1nc(Nc2ccccc2)nc(Nc2ccccc2)n1` [Compound 13, 4-[4,6-Bis-anilino-1,3,5-triazin-2-yl-oxy]-3-methoxy benzaldehyde], the Inhibition % with PDE-4 is 30%.

In turn, `COc1cc(C(c2[nH]c3ccccc3c2CC(=O)O)c2[nH]c3ccccc3c2CC(=O)O)ccc1Oc1nc(Nc2ccccc2)nc(Nc2ccccc2)n1` [Compound 4, 2,2′-[2,2′-4-(4,6-bis-anilino)-1,3,5-triazin-2-yl-oxy-3-methoxyphenyl]-methylene-bis-(1H-indole-3,3-diyl)-diacetic acid] returned an Inhibition % in the series on PDE-4 of 31%.

In the series on PDE-4, `COc1cc(C(c2cc3ccccc3[nH]2)c2cc3ccccc3[nH]2)ccc1Oc1nc(Nc2ccccc2)nc(Nc2ccccc2)n1` [Compound 2, 2,2′-[2,2′-4-(4,6-bis-anilino)-1,3,5-triazin-2-yl-oxy-3-methoxyphenyl]-methylene-bis-1H-indole] registered an Inhibition % of 34%. The same measure, in the same setting: the value for `COc1ccc(C2CNC(=O)C2)cc1OC1CCCC1` (centres unmarked) [Rolipram, reference compound] was 69%. In the case of `COc1ccc(C(c2cc3ccccc3[nH]2)c2cc3ccccc3[nH]2)cc1Oc1nc(Nc2ccccc2)nc(Nc2ccccc2)n1` [Compound 6, 2,2′-[2,2′-3-(4,6-bis-anilino)-1,3,5-triazin-2-yl-oxy-4-methoxyphenyl]-methylene-bis-1H-indole], the Inhibition % in the series on PDE-4 worked out at 45%.
